Data on four compounds can be found in patent US11691949B2, “Quinoline sulfonamide compounds and their use as antibacterial agents” (OTAGO INNOVATION LIMITED, priority 2017, dated 2023).

What is called MIC is the least concentration at which growth counts as inhibited. As a reminder, the MBC is the lowest tested concentration that kills the bacteria rather than only halting them.

SMILES strings stand for the structures. Converted amounts (≈) assume the structure as drawn. Where two headings read alike, the source gives them in different places.

Assay type in all cases: cell-based
For one assay, the system named is E. coli ATCC 10596. Nature of the assay: MIC by broth microdilution, E. coli. The settings on record: Escherichia coli, read-out: E. coli ATCC 10536 MIC. The essentials:
(§1)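 MBC measured as cell viability after compound challenge by Miles-Misra drop plating. MIC: broth microdilution at ~5×10^5 cfu/mL final (S. aureus: TSB, CAMHB; E. coli: LB, CAMHB; optional 50 μM zinc sulphate), 24 h at 37° C, 200 rpm, lowest concentration without growth by OD600; biological triplicate.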

Assay [1] deals with S. uberis ATCC 19436. Nature of the assay: MBC by Miles-Misra drop-plate method, S. uberis. The settings on record: Streptococcus uberis, read-out: S. uberis ATCC 19436 MBC. How it is done:
(§2) Antibacterial susceptibility testing was performed in triplicate (biological) by measuring minimum inhibitory concentrations (MICs) by broth microdilution in 96-well flat bottom microtiter plates (ThermoFisher Scientific, New Zealand). S. uberis ATCC 19436, S. aureus ATCC 6538, or E. coli ATCC 10596 cells grown overnight were diluted to an OD600 of approximately 0.025, so that the final concentration of cells in the MIC assay was approximately 5×10^5 cfu/mL in media as follows: S. uberis; Todd Hewitt Broth (THB), S. aureus; Tryptic Soy Broth (TSB) and Cation Adjusted Muller Hinton Broth (CAMHB), and E. coli; Lysogeny Borth (LB) and CAMHB, before being dispensed into microtiter wells. As required additional sterile Zinc Sulphate (Heptahydrate) was supplemented into the media, so the final concentration was 50 μM. Test compounds were added to starting wells and two-fold serial dilutions were undertaken to generate a range of inhibitor concentrations at a final volume of 200 μl. Media and test compound-free (untreated) controls were included in each microtiter plate in triplicate. After 24 h incubation at 37° C. and 200 rpm, the OD600 of wells were read using a Varioskan Flash plate reader (ThermoFisher Scientific, New Zealand). The MIC was reported as the lowest concentration of the test compound for which no growth occurred, as determined by OD600 readings. The minimum bactericidal concentration (MBC) was determined using the Miles-Misra drop-plate method to measure the viability of cells in response to test compound challenge.

The next assay concerns E. coli ATCC 10536. Description: MBC by Miles-Misra drop-plate method, E. coli. Particulars: Escherichia coli, read-out: E. coli ATCC 10536 MBC. How it is done:
as §2

Assay [2] has as its system S. uberis ATCC 19436. Description: MIC by broth microdilution, S. uberis. Particulars: Streptococcus uberis, read-out: S. uberis ATCC 19436 MIC. In outline:
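The MIC against S. uberis ATCC 19436 was the lowest compound concentration showing no growth by OD600 after 24 h at 37° C. with 200 rpm shaking. Cultures grown overnight were adjusted to OD600 ~0.025 so wells held approximately 5×10^5 cfu/mL in THB. Two-fold dilution series were made at a final volume of 200 μl. Media and untreated controls were run in triplicate on each plate.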

The test system of assay [3] is S. aureus ATCC 6538. Nature of the assay: MBC by Miles-Misra drop-plate method, S. aureus. The settings on record: Staphylococcus aureus, read-out: S. aureus ATCC 6538 MBC. On the procedure: as §2
The test system of assay [4] is S. aureus ATCC 6538. Description: MIC by broth microdilution, S. aureus. Particulars: Staphylococcus aureus, read-out: S. aureus ATCC 6538 MIC. The essentials: as §1
Setting [5] is: ATCC 10536 / ATCC 10596, No Zinc.
Where [6] appears, read: ATCC 10536 / ATCC 10596, Zinc (50 μM).

On to `CN(C)Cc1ccc2cccc(NS(=O)(=O)c3ccc(C(F)(F)F)cc3)c2n1.Cl` [ZDR022-HCl, N-(2-((Dimethylamino)methyl)quinolin-8-yl)-4-(trifluoromethyl)-benzenesulfonamide HCl], for which the MIC was over 256 µg/mL in the assay on E. coli ATCC 10596 (setting [5]); over 256 µg/mL with E. coli ATCC 10596 (setting [6]); 256 µg/mL with S. uberis ATCC 19436 [2] (ATCC19436, No Zinc); 0.125 µg/mL with S. uberis ATCC 19436 [2] (ATCC19436, Zinc (50 μM)); 64 µg/mL with S. aureus ATCC 6538 [4] (ATCC6538, No Zinc); 4 µg/mL in the assay on S. aureus ATCC 6538 [4] (ATCC6538, Zinc (50 μM)). Also, the MBC was over 256 µg/mL in the assay on S. uberis ATCC 19436 [1] (ATCC19436, No Zinc); 0.125 µg/mL with S. uberis ATCC 19436 [1] (ATCC19436, Zinc (50 μM)); over 256 µg/mL in the assay with E. coli ATCC 10536 (ATCC10536, No Zinc); over 256 µg/mL in the assay on E. coli ATCC 10536 (ATCC10536, Zinc (50 μM)); 128 µg/mL in the assay on S. aureus ATCC 6538 [3] (ATCC6538, No Zinc); 256 µg/mL with S. aureus ATCC 6538 [3] (ATCC6538, Zinc (50 μM)).

Turning to `O=S(=O)(Nc1cccc2ccc(CNCCN3CCCCC3)nc12)c1ccc(C(F)(F)F)cc1` [ZDR111, N-(2-(((2-(Piperidin-1-yl)ethyl)amino)methyl)quinolin-8-yl)-4-(trifluoromethyl)benzenesulfonamide], the MIC is 64 µg/mL (≈ 130 µM) with E. coli ATCC 10596 (setting [5]); over 256 µg/mL with E. coli ATCC 10596 (setting [6]); 8 µg/mL (≈ 16.2 µM) in the assay on S. uberis ATCC 19436 [2] (ATCC19436, No Zinc); 0.5 µg/mL (≈ 1.02 µM) with S. uberis ATCC 19436 [2] (ATCC19436, Zinc (50 μM)); 16 µg/mL (≈ 32.5 µM) in the assay on S. aureus ATCC 6538 [4] (ATCC6538, No Zinc); 16 µg/mL (≈ 32.5 µM) with S. aureus ATCC 6538 [4] (ATCC6538, Zinc (50 μM)). Besides, the MBC in the assay on S. uberis ATCC 19436 [1] (ATCC19436, No Zinc) was 8 µg/mL (≈ 16.2 µM); in the assay with S. uberis ATCC 19436 [1] (ATCC19436, Zinc (50 μM)), 1 µg/mL (≈ 2.03 µM); in the assay with E. coli ATCC 10536 (ATCC10536, No Zinc) it was over 256 µg/mL; in the assay on E. coli ATCC 10536 (ATCC10536, Zinc (50 μM)), over 256 µg/mL; with S. aureus ATCC 6538 [3] (ATCC6538, No Zinc), 16 µg/mL (≈ 32.5 µM); in the assay on S. aureus ATCC 6538 [3] (ATCC6538, Zinc (50 μM)) it was 16 µg/mL (≈ 32.5 µM).

As to `O=S(=O)(Nc1cccc2ccc(CNc3cc(Cl)cc(Cl)c3O)nc12)c1ccc(C(F)(F)F)cc1` [ZDR167, N-(2-(((3,5-Dichloro-2-hydroxyphenyl)amino)methyl)quinolin-8-yl)-4-(trifluoromethyl)benzenesulfonamide], the MIC in the assay on E. coli ATCC 10596 (setting [5]) is over 256 µg/mL; in the assay with E. coli ATCC 10596 (setting [6]) it was over 256 µg/mL; with S. uberis ATCC 19436 [2] (ATCC19436, No Zinc) it was 2 µg/mL (≈ 3.69 µM); in the assay on S. uberis ATCC 19436 [2] (ATCC19436, Zinc (50 μM)), 0.5 µg/mL (≈ 0.922 µM); in the assay on S. aureus ATCC 6538 [4] (ATCC6538, No Zinc), 2 µg/mL (≈ 3.69 µM); in the assay on S. aureus ATCC 6538 [4] (ATCC6538, Zinc (50 μM)) it was 2 µg/mL (≈ 3.69 µM). For the same compound, the MBC in the assay with S. uberis ATCC 19436 [1] (ATCC19436, No Zinc) was 8 µg/mL (≈ 14.8 µM); in the assay with S. uberis ATCC 19436 [1] (ATCC19436, Zinc (50 μM)) it was 0.5 µg/mL (≈ 0.922 µM); in the assay with E. coli ATCC 10536 (ATCC10536, No Zinc), over 256 µg/mL; in the assay with E. coli ATCC 10536 (ATCC10536, Zinc (50 μM)) it was over 256 µg/mL; in the assay with S. aureus ATCC 6538 [3] (ATCC6538, No Zinc), 8 µg/mL (≈ 14.8 µM); in the assay with S. aureus ATCC 6538 [3] (ATCC6538, Zinc (50 μM)), 8 µg/mL (≈ 14.8 µM).

As for `CN(C)Cc1ccc2cccc(NS(=O)(=O)c3ccc(Cl)cc3Cl)c2n1` [ZDR335, 2,4-Dichloro-N-(2-((dimethylamino)methyl)quinolin-8-yl)benzenesulfonamide], the MIC in the assay with E. coli ATCC 10596 (setting [5]) was over 256 µg/mL; in the assay on E. coli ATCC 10596 (setting [6]), over 256 µg/mL; in the assay with S. uberis ATCC 19436 [2] (ATCC19436, No Zinc) it was 64 µg/mL (≈ 156 µM); with S. uberis ATCC 19436 [2] (ATCC19436, Zinc (50 μM)), 0.0312 µg/mL (≈ 0.076 µM); with S. aureus ATCC 6538 [4] (ATCC6538, No Zinc), 32 µg/mL (≈ 78 µM); in the assay with S. aureus ATCC 6538 [4] (ATCC6538, Zinc (50 μM)), 8 µg/mL (≈ 19.5 µM). The MBC in the assay on S. uberis ATCC 19436 [1] (ATCC19436, No Zinc) was 64 µg/mL (≈ 156 µM); in the assay with S. uberis ATCC 19436 [1] (ATCC19436, Zinc (50 μM)) it was 2 µg/mL (≈ 4.87 µM); in the assay on E. coli ATCC 10536 (ATCC10536, No Zinc), over 256 µg/mL; with E. coli ATCC 10536 (ATCC10536, Zinc (50 μM)), over 256 µg/mL; with S. aureus ATCC 6538 [3] (ATCC6538, No Zinc) it was over 256 µg/mL; with S. aureus ATCC 6538 [3] (ATCC6538, Zinc (50 μM)) it was over 256 µg/mL.
